This passage reports MIC results from patent US7223759B2, “Antibacterial 3,5-diaminopiperidine-substituted aromatic and heteroaromatic compounds” (Anadys Pharmaceuticals, Inc., priority 2003, dated 2007).

A value given as a limit tells only on which side of the number the result lay.

One test concerns Escherichia coli (ATCC25922) or Staphylococcus aureus (ATCC25923). In words: Antibacterial MIC, microdilution method in Mueller-Hinton medium. Type of test: cell-based. To be noted: Escherichia coli, 18 h, MIC in E. coli or S. aureus; two-fold serial dilutions 64 to 0.5 μg/ml in duplicate; 18 hours of incubation at 35° C.; read-out: Potency (MIC). The procedure, abridged:
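Read after 18 h incubation at 35° C, MIC is the lowest compound level that blocked growth. Compounds were tested in duplicate over 64–0.5 μg/ml two-fold dilutions using Mueller-Hinton microdilution per NCCLS standard.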
Consider `Cl.Nc1ccc(S(=O)(=O)Nc2ccc(Nc3nc(N4CCCCC4)nc(N4CCCCC4)n3)cc2O)cc1` [N-[4-(4-amino-benzenesulfonylamino)-3-hydroxy-phenyl]-4,6-Bis-((3R,5S)-33,5-diamino-piperidin-1-yl)-[1,3,5]triazine-2-amine], for which the MIC is under 64 µg/mL.

The test is the same for the next values; noted with them: Escherichia coli, 18 h, read-out: Potency (MIC).
`N[C@@H]1C[C@H](N)CN(c2nc(Nc3ccc(C(=O)Nc4ccc(F)c(F)c4)c(O)c3)nc(N3C[C@H](N)C[C@H](N)C3)n2)C1` [N-[4-(3,4-difluoro-phenylcarbamoyl)-3-hydroxy-phenyl]-4,6-Bis-((3R,5S)-3,5-diamino-piperidin-1-yl)-[1,3,5]triazine-2-amine]: the MIC was under 16 µg/mL.

With `COc1ccc(S(=O)(=O)Nc2ccc(Nc3nc(N4C[C@H](N)C[C@H](N)C4)nc(N4C[C@H](N)C[C@H](N)C4)n3)cc2O)cc1OC` [N-[4-(3,4-dimethoxy-benzenesulfonylamino)-3-hydroxy-phenyl]-4,6-Bis-((3R,5S)-3,5-diamino-piperidin-1-yl)-[1,3,5]triazine-2-amine], the MIC is over 64 µg/mL.

For `Cc1noc(NS(=O)(=O)c2ccc(Nc3nc(N4C[C@H](N)C[C@H](N)C4)nc(N4C[C@H](N)C[C@H](N)C4)n3)cc2)c1C` [N-[4-(3,4-dimethyl-isoxazol-5-ylsulfamoyl)-phenyl]-4,6-Bis-((3R,5S)-3,5-diamino-piperidin-1-yl)-[1,3,5]triazine-2-amine], the MIC is over 64 µg/mL.

Regarding `N[C@@H]1C[C@H](N)CN(c2nc(Nc3ccc(NS(=O)(=O)c4cc(Cl)cc(Cl)c4O)c(O)c3)nc(N3C[C@H](N)C[C@H](N)C3)n2)C1` [N-[4-(3,5-dichloro-2-hydroxy-benzenesulfonylamino)-3-hydroxy-phenyl]-4,6-Bis-((3R,5S)-3,5-diamino-piperidin-1-yl)-[1,3,5]triazine-2-amine], the MIC was under 16 µg/mL.

As for `N[C@@H]1C[C@H](N)CN(c2nc(Nc3ccc(C(=O)Nc4cc(Cl)c(O)c(Cl)c4)c(O)c3)nc(N3C[C@H](N)C[C@H](N)C3)n2)C1` [N-[4-(3,5-dichloro-4-hydroxy-phenylcarbamoyl)-3-hydroxy-phenyl]-4,6-Bis-((3R,5S)-3,5-diamino-piperidin-1-yl)-[1,3,5]triazine-2-amine], the MIC is under 64 µg/mL.

`N[C@@H]1C[C@H](N)CN(c2nc(Nc3ccc(NS(=O)(=O)c4cc(Cl)cc(Cl)c4)c(O)c3)nc(N3C[C@H](N)C[C@H](N)C3)n2)C1` [N-[4-(3,5-dichloro-benzenesulfonylamino)-3-hydroxy-phenyl]-4,6-Bis-((3R,5S)-3,5-diamino-piperidin-1-yl)-[1,3,5]triazine-2-amine]: the MIC is under 64 µg/mL.

Consider `N[C@@H]1C[C@H](N)CN(c2nc(Nc3ccc(NC(=O)c4cccc(Br)c4)c(O)c3)nc(N3C[C@H](N)C[C@H](N)C3)n2)C1` [N-[4-(3-bromo-benzoylamino)-3-hydroxy-phenyl]-4,6-Bis-((3R,5S)-3,5-diamino-piperidin-1-yl)-[1,3,5]triazine-2-amine], for which the MIC was under 16 µg/mL.

On to `N[C@@H]1C[C@H](N)CN(c2nc(Nc3ccc(C(=O)Nc4ccc(F)c(Cl)c4)c(O)c3)nc(N3C[C@H](N)C[C@H](N)C3)n2)C1` [N-[4-(3-chloro-4-fluoro-phenylcarbamoyl)-3-hydroxy-phenyl]-4,6-Bis-((3R,5S)-3,5-diamino-piperidin-1-yl)-[1,3,5]triazine-2-amine], for which the MIC is under 16 µg/mL.

`N[C@@H]1C[C@H](N)CN(c2nc(Nc3ccc(C(=O)Nc4cccc(Cl)c4)c(O)c3)nc(N3C[C@H](N)C[C@H](N)C3)n2)C1` [N-[4-(3-chloro-phenylcarbamoyl)-3-hydroxy-phenyl]-4,6-Bis-((3R,5S)-3,5-diamino-piperidin-1-yl)-[1,3,5]triazine-2-amine]: the MIC was under 16 µg/mL.

`N[C@@H]1C[C@H](N)CN(c2nc(Nc3ccc(NS(=O)(=O)CCCCl)c(O)c3)nc(N3C[C@H](N)C[C@H](N)C3)n2)C1` [N-[4-(3-chloro-propane-1-sulfonylamino)-3-hydroxy-phenyl]-4,6-Bis-((3R,5S)-3,5-diamino-piperidin-1-yl)-[1,3,5]triazine-2-amine]: the MIC was over 64 µg/mL.

On to `Cc1nc(NS(=O)(=O)c2ccc(Nc3nc(N4C[C@H](N)C[C@H](N)C4)nc(N4C[C@H](N)C[C@H](N)C4)n3)cc2)oc1C` [N-[4-(4,5-dimethyl-oxazol-2-ylsulfamoyl)-phenyl]-4,6-Bis-((3R,5S)-3,5-diamino-piperidin-1-yl)-[1,3,5]triazin-2-amine], for which the MIC is over 64 µg/mL.

Consider `NC(=O)c1ccc(NC(=O)c2ccc(Nc3nc(N4C[C@H](N)C[C@H](N)C4)nc(N4C[C@H](N)C[C@H](N)C4)n3)cc2O)cc1` [N-[4-(4-carbamoyl-phenylcarbamoyl)-3-hydroxy-phenyl]-4,6-Bis-((3R,5S)-3,5-diamino-piperidin-1-yl)-[1,3,5]triazine-2-amine], for which the MIC is over 64 µg/mL.

With `N[C@@H]1C[C@H](N)CN(c2nc(Nc3ccc(NC(=O)c4ccc(Cl)cc4O)c(F)c3)nc(N3C[C@H](N)C[C@H](N)C3)n2)C1` [N-[4-(4-chloro-2-hydroxy-benzoylamino)-3-fluoro-phenyl]-4,6-Bis-((3R,5S)-3,5-diamino-piperidin-1-yl)-[1,3,5]triazine-2-amine], the MIC is under 16 µg/mL.

On to `N[C@@H]1C[C@H](N)CN(c2nc(Nc3ccc(NC(=O)c4ccc(Cl)cc4O)c(O)c3)nc(N3C[C@H](N)C[C@H](N)C3)n2)C1` [N-[4-(4-chloro-2-hydroxy-benzoylamino)-3-hydroxy-phenyl]-4,6-Bis-((3R,5S)-3,5-diamino-piperidin-1-yl)-[1,3,5]triazine-2-amine], for which the MIC was under 16 µg/mL.

Take `Cc1cc(Nc2nc(N3C[C@H](N)C[C@H](N)C3)nc(N3C[C@H](N)C[C@H](N)C3)n2)ccc1NC(=O)c1ccc(Cl)cc1O` [N-[4-(4-chloro-2-hydroxy-benzoylamino)-3-methyl-phenyl]-4,6-Bis-((3R,5S)-3,5-diamino-piperidin-1-yl)-[1,3,5]triazine-2-amine]: the MIC is under 16 µg/mL.

Turning to `N[C@@H]1C[C@H](N)CN(c2nc(Nc3ccc(NC(=O)c4ccc(Cl)cc4O)c(C(=O)Nc4ccccc4)c3)nc(N3C[C@H](N)C[C@H](N)C3)n2)C1` [N-[4-(4-chloro-2-hydroxy-benzoylamino)-3-phenylcarbamoyl-phenyl]-4,6-Bis-((3R,5S)-3,5-diamino-piperidin-1-yl)-[1,3,5]triazine-2-amine], the MIC is under 16 µg/mL.

For `N[C@@H]1C[C@H](N)CN(c2nc(Nc3ccc(NC(=O)c4ccc(Cl)cc4O)c(C(F)(F)F)c3)nc(N3C[C@H](N)C[C@H](N)C3)n2)C1` [N-[4-(4-chloro-2-hydroxy-benzoylamino)-3-trifluoromethyl-phenyl]-4,6-Bis-((3R,5S)-3,5-diamino-piperidin-1-yl)-[1,3,5]triazine-2-amine], the MIC is under 16 µg/mL.

Consider `N[C@@H]1C[C@H](N)CN(c2nc(Nc3ccc(NC(=O)c4ccc(Cl)cc4O)cc3)nc(N3C[C@H](N)C[C@H](N)C3)n2)C1` [N-[4-(4-chloro-2-hydroxy-benzoylamino)-phenyl]-4,6-Bis-((3R,5S)-3,5-diamino-piperidin-1-yl)-[1,3,5]triazine-2-amine], for which the MIC was under 16 µg/mL.

With `N[C@@H]1C[C@H](N)CN(c2nc(Nc3ccc(NC(=O)c4ccc(Cl)cc4)c(O)c3)nc(N3C[C@H](N)C[C@H](N)C3)n2)C1` [N-[4-(4-chloro-benzoylamino)-3-hydroxy-phenyl]-4,6-Bis-((3R,5S)-3,5-diamino-piperidin-1-yl)-[1,3,5]triazine-2-amine], the MIC is under 16 µg/mL.

What is called MIC is the lowest concentration that inhibits growth of the organism.
